Assays:
[1] = test system: Poly (ADP-Ribose) Polymerase (PARP); assay: Western immunoblot detection of PARP cleavage fragment; assay type: cell-based, mouse; conditions: 48 hours
Method: Poly (ADP-Ribose) Polymerase cleavage was analyzed as an alternate method for detecting apoptosis. 66 cl.4-GFP cells were treated as described above for the DAPI assay. Following the PBS wash, cells were suspended in lysis buffer (1X PBS, 1% Nonidet P-40, 0.5% sodium deoxycholate, 0.1% sodium dodecyl sulfate (SDS), 1 µg/ml leupeptin, 1 µg/ml aprotinin, 1mM dithiothreitol (DTT), 2 mM sodium orthovanadate, 10 µg/ml phenylmethylsulfonyl fluoride (PMSF)) for 30 min at 4°C, vortexed, and supernatants collected by centrifugation at 15,000 X g for 20 min. Protein concentrations were determined using the Bio-Rad (Bradford) protein assay (Bio-Rad Laboratories, Hercules, CA), and samples (100 µg/lane) resolved on 7.5% SDS-polyacrylamide gels electrophoresed under reducing conditions.
Proteins were electroblotted onto a nitrocellulose membrane (0.2 µM pore Optitran BA-S-supported nitrocellulose; Schleicher and Schuell, Keene, NH). After transfer, membranes were blocked with blocking buffer [25 mM Tris-HCl (pH 8.0), 125 mM NaCl, 0.5% Tween-20, and 5% non-fat dry milk] for 45 min at room temperature. Immunoblotting was performed using 1 µg of primary rabbit anti-human Poly (ADP-Ribose) Polymerase antibody [PARP (H-250), Santa Cruz Biotechnology, Santa Cruz, CA], and horseradish peroxidase-conjugated goat anti-rabbit immunoglobulin was used as the secondary antibody (Jackson Immunoresearch Laboratory, West Grove, PA) at a 1:3,000 dilution. Horseradish peroxidase-labeled bands from washed blots were detected by enhanced chemiluminescence (Pierce, Rockford, IL) and autoradiography (Kodak BioMax film; Rochester, NY).

[2] = test system: 66 cl.4-GFP cells; assay: Apoptosis by morphological evaluation of DAPI-stained nuclei; assay type: cell-based, mouse; conditions: for apoptosis: three days
[3] = test system: 66 cl.4-GFP cells; assay: Fluorescent lung micrometastases of 66 cl.4-GFP tumors in Balb/c mice; assay type: in vivo; conditions: for Inhibition (%) Lung Metastases: Liposomal; for numbers of micrometastases (± S. E.): α-TEA EtOH/peanut oil by gavage 5 mg/day
From the text: Metastastic lesions in the five lung lobes were counted visually at time of sacrifice. Fluorescent green micro-metastatic cancer cell colonies in the left lung lobe and lymph nodes were counted using a Nikon fluorescence microscope (TE-200) with a 20 x objective (200 x magnification) and Image-Pro Plus (version 4.1; Media Cybernetics, Silver Spring, MD) software associated with the microscope. Fluorescent lesions were separated into three size grouping: <5 µm , 5-10 µm and >10 µm.
At sacrifice, the left lung lobe of each mouse of flash frozen and saves for detection of GFP expressing micrometatstic lesions via fluorescent microscopy.

Compound: Cc1c(C)c2c(c(C)c1OCC(=O)O)CC[C@@](C)(CCC[C@H](C)CCC[C@H](C)CCCC(C)C)O2 [α-TEA, 2,5,7,8-tetramethyl-(2R-(4R,8R,12-trimethyltridecyl)chroman-6-yloxy) acetic acid]
- 84 kDa cleavage fragment of PARP ([1]; 5 µg/ml): only intact PARP protein was detected
- 84 kDa cleavage fragment of PARP ([1]; 10 µg/ml): evident
- 84 kDa cleavage fragment of PARP ([1]; 20 µg/ml): evident
- apoptosis ([2]; 2.5 µg/ml): 5%
- apoptosis ([2]; 5 µg/ml): 6%
- apoptosis (time course) ([2]; 10 µg/ml, 2 days): 20%
- apoptosis (time course) ([2]; 10 µg/ml, 3 days): 35%
- apoptosis (time course) ([2]; 10 µg/ml, 4 days): 47%
- apoptosis (time course) ([2]; 10 µg/ml, 5 days): 58%
- apoptosis ([2]; 10 µg/ml): 34%
- apoptosis ([2]; 20 µg/ml): 50%
- Inhibition (%) Metastases Lung ([3]; Aerosol, in nebulizer per mouse: α-TEA 5 mg/d, 9NC 2 µg/d, combination 5 mg+2µg/d): 71%
- Inhibition (%) Lung Metastases (number of lung tumor micrometastases reduced) ([3]; EtOH/P Oil, Gavage, 5 mg/d): 62%
- Inhibition (%) Lung Metastases ([3]; Aerosol, 5 mg/d, in comparison to aerosol control): 81%
- Inhibition (%) Lung Metastases ([3]; Gavage, 3 mg/2Xd): 59%
- micrometatstatic lung lesions ([3]; liposomal formulation via gavage, 6 mg compound per day, 21 days, left lung lobe): 21.5 /lung
- mean number of micrometastases (± S. E.) ([3]; liposomal α-TEA/aerosol, left lung lobe, N= 8): 11.4 ± 3.5
- numbers of micrometastases (± S. E.) ([3]; size 5-10 µm): 11.3± 1.8
- numbers of micrometastases (± S. E.) ([3]; size < 5 µm): 6.8±1.5
- numbers of micrometastases (± S. E.) ([3]; size >10 µm): 3.1±1.2

From patent publication EP1463487B1, “LIPOSOMAL DELIVERY OF VITAMIN E BASED COMPOUNDS” (RESEARCH DEVELOPMENT FOUNDATION, priority 2001, dated 2003)
